pKd: −log10 of the molar value.
Columns and labels:
monomeric P-selectin = target: T1, monomeric P-selectin (Homo sapiens, UniProt P16109); assay: BIAcore surface plasmon resonance, immobilized glycosaminoglycan vs monomeric P-selectin; type: binding; details: for pKd / koff / kon: P-selectin, GAG immobilized, 25° C.; for interaction with immobilized glycosaminoglycan (sensorgram): monomeric P-selectin
T1 construct: purchased Genzyme-Techne
T1 sequence (P16109 42-771 limits assumed): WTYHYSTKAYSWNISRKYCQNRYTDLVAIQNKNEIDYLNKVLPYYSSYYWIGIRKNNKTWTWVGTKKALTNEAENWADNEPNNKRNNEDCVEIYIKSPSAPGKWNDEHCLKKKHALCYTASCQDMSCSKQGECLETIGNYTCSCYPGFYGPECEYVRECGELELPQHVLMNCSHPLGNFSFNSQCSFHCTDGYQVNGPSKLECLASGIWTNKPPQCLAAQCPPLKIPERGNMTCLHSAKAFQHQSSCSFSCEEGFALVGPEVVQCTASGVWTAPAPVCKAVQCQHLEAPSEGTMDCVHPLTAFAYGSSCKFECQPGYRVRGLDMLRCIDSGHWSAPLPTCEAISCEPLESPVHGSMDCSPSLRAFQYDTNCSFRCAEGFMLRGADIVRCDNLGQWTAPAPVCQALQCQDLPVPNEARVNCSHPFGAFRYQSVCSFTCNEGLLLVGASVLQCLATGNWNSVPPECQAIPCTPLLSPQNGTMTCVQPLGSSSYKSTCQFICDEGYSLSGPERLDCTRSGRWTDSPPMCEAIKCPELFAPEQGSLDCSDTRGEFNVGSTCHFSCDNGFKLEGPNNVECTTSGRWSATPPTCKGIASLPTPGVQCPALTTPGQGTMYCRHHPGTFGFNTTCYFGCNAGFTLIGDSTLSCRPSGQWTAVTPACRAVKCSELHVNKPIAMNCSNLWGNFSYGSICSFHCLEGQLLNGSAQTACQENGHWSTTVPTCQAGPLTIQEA
Protocol: (§1) Affinity kinetics of the interaction between various CS/DS chains and each of L-selectin, P-selectin, CD44 and chemokine were examined by surface plasmon resonance using BIAcore™ biosensor [manufactured by BIAcore AB].
(§2) All experiments were performed at 25° C. At stages of washing and dissociation, buffer C (20 mM HEPES-NaOH, 0.15M NaCl, 1 mM CaCl2, 1 mM MgCl2, pH6.8) was used as a running buffer.
(§3) First, about 1.8 to 2.0 kiloresonance unit (1 kiloresonance unit=1 ng/mm^2) of streptavidin were covalently immobilized onto B1 sensor chip via a primary amine group using an amine coupling kit [manufactured by Amercham-Bioscience] according to the instruction provided by the manufacturer. The remaining activated groups were blocked with 150 μl of 1M ethanolamine-HCl (pH8.5). Then, each glycosaminoglycan which had been biotinylated at a reducing end was injected to a sensor tip surface by using EZ-link™ biotin-LC-hydrazide [manufactured by Pierce] so as to obtain about 150 resonance unit of an immobilization level, according to the method of Sadir et al. [J. Biol. Chem., 276, 8288-8296 (2001); all teachings of which are hereby incorporated by reference].
(§4) Binding assay was performed by injecting continuously each of various concentrations of secondary lymphoid tissue chemokine, γ-interferon inducible protein-10, stromal cell-derived factor-1β, monomeric L-selectin [manufactured by Genzyme-Techne], monomeric P-selectin [manufactured by Genzyme-Techne] and monomeric CD44, to a glycosaminoglycan-coupled sensor tip at a flow rate of 30 μl/min for 0 to 90 seconds, and then injecting a running buffer thereto. A response in resonance unit was recorded as a function of a time.
(§5) A sensor tip surface was regenerated with 300 μl of 1 M NaCl when chemokine or CD44 was used, or regenerated with 300 μl of 1 M NaCl, and additional 100 μl of 50 mM EDTA (pH8.0), when selectin was used. As a result of regeneration of a sensor tip surface, a remarkable change in a baseline was not observed.
(§6) An affinity kinetic parameter was determined by BIAevaluation 3.0 software [manufactured by Pharmacia Biosensor] using a single site binding model. […] In FIG. 6 and Table 3, SLC denotes secondary lymphoid tissue chemokin, IP-10 denotes γ-interferon inducible protein-10, SDF-1β denotes stromal cell-derived factor-1β, CS E denotes chondroitin sulfate E, and CS A denotes chondroitin sulfate A. In addition, in Table 3, Kd value for the interaction between monomeric CD44 and chondroitin sulfate E is a value calculated from a binding amount at equilibrium, and Kd value of the interaction between CD44 and hyaluronic acid is a value calculated using CD44-Ig.

[1] = target: γ-interferon inducible protein-10 (Homo sapiens, UniProt P02778); assay: BIAcore surface plasmon resonance, immobilized glycosaminoglycan vs IP-10; type: binding; details: for pKd / koff / kon: GAG immobilized, 25° C.
Sequence of γ-interferon inducible protein-10 (P02778 22-98): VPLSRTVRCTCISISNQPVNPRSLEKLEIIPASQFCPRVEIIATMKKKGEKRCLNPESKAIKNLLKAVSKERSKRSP
Protocol: as §1, §2, §3, §4, §5, §6

L-selectin-Ig [2] = target: T2, L-selectin-Ig (Homo sapiens, UniProt P14151); assay: Binding inhibition assay (ELISA), biotinylated versican to L-selectin-Ig, various concentrations; details: dose-dependent, FIG. 2 panel A
T2 construct: purchased R & D Systems Inc
T2 sequence (P14151 with tags, fused parts or gaps limits assumed): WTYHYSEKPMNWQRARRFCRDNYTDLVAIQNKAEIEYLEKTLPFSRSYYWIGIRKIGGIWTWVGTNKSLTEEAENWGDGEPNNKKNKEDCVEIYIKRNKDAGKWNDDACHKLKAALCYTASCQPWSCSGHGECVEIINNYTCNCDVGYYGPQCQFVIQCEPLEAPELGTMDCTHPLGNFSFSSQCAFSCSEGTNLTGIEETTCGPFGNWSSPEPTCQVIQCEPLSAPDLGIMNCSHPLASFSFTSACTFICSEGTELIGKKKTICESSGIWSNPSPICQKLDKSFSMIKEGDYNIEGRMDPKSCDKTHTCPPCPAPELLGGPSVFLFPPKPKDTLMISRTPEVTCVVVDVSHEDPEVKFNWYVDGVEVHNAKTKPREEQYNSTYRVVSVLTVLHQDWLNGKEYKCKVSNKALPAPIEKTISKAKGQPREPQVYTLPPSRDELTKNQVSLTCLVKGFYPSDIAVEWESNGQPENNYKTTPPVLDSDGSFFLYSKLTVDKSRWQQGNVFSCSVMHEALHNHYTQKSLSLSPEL
Protocol: (§7) Inhibition assay of binding between versican and each of L-selectin, P-selectin and CD44 was performed as follows. First, each well on a 96 well flat bottom microtiter plate (Coster EIA/RIA plate No. 3690) was coated with L-selectin-Ig (3 μg/ml), P-selectin-Ig (4 μg/ml) or CD44-Ig (0.25 μg/ml) by a conventional procedure. […] The plate was incubated at room temperature for 2 hours. Thereafter, the plate was washed with the buffer A, and enzyme-linked immunosorbent assay was performed in the same manner as described in Kawashima, H. et al. [J. Biol. Chem., 275, 35448-35456 (2000)]. Binding was determined by measuring absorbance at 620 nm using alkaline phosphatase-conjugated streptavidin and Blue Phos™ substrate.

P-selectin-Ig = assay: Binding inhibition assay (ELISA), biotinylated versican to P-selectin-Ig, various concentrations; details: dose-dependent, FIG. 2 panel B
Protocol: as §7

platelet factor 4 = target: T3, platelet factor 4 (Homo sapiens, UniProt P02776); assay: ELISA, biotinylated versican binding to PF4 in presence of glycosaminoglycan; details: 100 μg/ml glycosaminoglycan; FIG. 5
T3 sequence (P02776 32-101): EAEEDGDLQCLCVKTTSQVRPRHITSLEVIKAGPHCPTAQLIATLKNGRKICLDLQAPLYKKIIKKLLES
Protocol: (§8) A well of a 96 well flat bottom microtiter plate was coated with BSA (5 μg/ml), anti-versican monoclonal antibody 2B1 (5 μg/ml), CD44-Ig (7 μg/ml), L-selectin-Ig (3 μg/ml), P-selectin-Ig (3 μg/ml) or chemokine (1 μg/ml), and then blocked with a phosphate buffered physiological saline containing 3% by weight of BSA. As the above chemokine, secondary lymphoid tissue chemokine, γ-interferon inducible protein-10, platelet factor 4, stromal cell-derived factor-1β [manufactured by Pepro Tech] and stromal cell-derived factor-1α [manufactured by Pepro Tech] were used.
(§9) Thereafter, the plate was washed with the buffer A, and enzyme-linked immunosorbent assay was performed in the same manner as that of the previous report [Kawashima, H. et al., J. Biol. Chem., 275, 35448-35456 (2000)]. Binding was determined by measuring absorbance at 620 nm using alkaline phosphatase-conjugated streptavidin and Blue Phos™ substrate. In FIG. 5, expression of an abscissa axis is the same as that of FIG. 4.

L-selectin-Ig [3] = target: T2, L-selectin-Ig; assay: ELISA, biotinylated versican binding to L-selectin-Ig in presence of glycosaminoglycan; details: 100 μg/ml glycosaminoglycan; FIG. 5
Protocol: as §8, §9

chondroitin polysulfate [CPS]
pKd (monomeric P-selectin): 7.25
koff (monomeric P-selectin): 0.000759 s⁻¹
kon (monomeric P-selectin): 13400 M⁻¹ s⁻¹
pKd [1]: 7.14
koff [1]: 0.0023 s⁻¹
kon [1]: 31500 M⁻¹ s⁻¹
inhibition of binding between biotinylated versican and L-selectin-Ig (L-selectin-Ig [2]): inhibited
inhibition of binding between biotinylated versican and P-selectin-Ig (P-selectin-Ig): inhibited
inhibition of binding between biotinylated versican and platelet factor 4 (platelet factor 4): inhibited
inhibition of binding between biotinylated versican and L-selectin (L-selectin-Ig [3]): inhibited

chondroitin sulfate A [CS A]
interaction with immobilized glycosaminoglycan (sensorgram) (monomeric P-selectin): did not interact
interaction with immobilized glycosaminoglycan (sensorgram) [1]: did not interact
inhibition of binding between biotinylated versican and L-selectin-Ig (L-selectin-Ig [2]): not inhibited
inhibition of binding between biotinylated versican and P-selectin-Ig (P-selectin-Ig): not inhibited

chondroitin sulfate E [CS E]
pKd (monomeric P-selectin): 7.53
koff (monomeric P-selectin): 0.00125 s⁻¹
kon (monomeric P-selectin): 42100 M⁻¹ s⁻¹
interaction with immobilized glycosaminoglycan (sensorgram) (monomeric P-selectin): bound
interaction with immobilized glycosaminoglycan (sensorgram) [1]: bound
pKd [1]: 6.89
koff [1]: 0.00211 s⁻¹
kon [1]: 16200 M⁻¹ s⁻¹
inhibition of binding between biotinylated versican and L-selectin-Ig (L-selectin-Ig [2]): inhibited
inhibition of binding between biotinylated versican and P-selectin-Ig (P-selectin-Ig): inhibited
inhibition of binding between biotinylated versican and platelet factor 4 (platelet factor 4): inhibited
inhibition of binding between biotinylated versican and L-selectin (L-selectin-Ig [3]): inhibited

dermatan polysulfate [DPS]
koff (monomeric P-selectin): 0.000664 s⁻¹
kon (monomeric P-selectin): 24000 M⁻¹ s⁻¹
pKd [1]: 7.46
koff [1]: 0.000923 s⁻¹
kon [1]: 26400 M⁻¹ s⁻¹
inhibition of binding between biotinylated versican and L-selectin-Ig (L-selectin-Ig [2]): inhibited
inhibition of binding between biotinylated versican and P-selectin-Ig (P-selectin-Ig): inhibited
inhibition of binding between biotinylated versican and platelet factor 4 (platelet factor 4): inhibited
inhibition of binding between biotinylated versican and L-selectin (L-selectin-Ig [3]): inhibited
